Test results published in patent publication US12329739B2, “Isoflavonoid compounds and methods for the treatment of cancer” (Aardvark Therapeutics, Inc., priority 2010, dated 2025).

What was measured:
SK-Hep-1 = assay: MTT proliferation assay, SK-Hep-1; assay type: cell-based, human; conditions: Homo sapiens, SK-HEP1; Liver, SK-Hep-1, 120 h of exposure
Procedure: The human hepatocellular carcinoma lines HepG2 (HB-8065), SK-HEP-1 (HTB-52) and the normal human lung fibroblast line IMR-90 (CCL-186) were cultured in Minimum Essential Eagles Medium containing 2 mM L-glutamine, 2.2 g/L sodium bicarbonate, supplemented with 1 mM sodium pyruvate and 0.1 mM non-essential amino acids. The human hepatocellular carcinoma line JHH-1 (JCRB1062) was cultured in Williams E Medium (Invitrogen) containing 2.2 g/L sodium bicarbonate, supplemented with 2 mM L-glutamine. The hepatocellular carcinoma line HuH-7 (JCRB0403) was cultured in DMEM, supplemented with 2 mM L-glutamine.
(§1) Proliferation Assays. IC50 values were determined for each cell line. Cells were seeded in 96-well plates at an appropriate cell density as determined from growth kinetics analysis and cultured for 5 days in the absence and presence of the test compounds. Cell proliferation was assessed after the addition of 20 μl of 3-4,5 dimethylthiazol-2,5-diphenyl tetrazolium bromide (MTT, 5 mg/ml in PBS, Sigma) for 5 hrs at 37° C. according to manufacturer's instructions. IC50 values were calculated from semi-log plots of % of control proliferation on the y-axis against log dose on the x-axis.
(§2) Anti-proliferative Activity of Isoflavonoid Derivatives. IC50 values were determined for each cell line after 120 h of exposure.

A549 = assay: MTT proliferation assay, A549; assay type: cell-based; conditions: Homo sapiens; NSCLC, A549, 120 h of exposure
Procedure: as §1, §2

SKBR-3 = assay: MTT proliferation assay, SKBR-3; assay type: cell-based, human
Procedure: The human colorectal adenocarcinoma line HCT-116 (CCL-247) and the human breast adenocarcinoma line SK-BR-3 (HTB-30) were cultured in McCoy's 5a Medium (Invitrogen) containing 1.5 mM L-glutamine and 2.2 g/L sodium bicarbonate. The human colorectal adenocarcinoma line SW620 (CCL-227) was cultured in Leibovitz's L-15 Medium (Invitrogen) containing 2.05 mM L-glutamine.
as §1, §2

MM2200 = assay: MTT proliferation assay, MM2200; assay type: cell-based; conditions: Table 2, Melanoma, MM2200, 120 hrs of exposure
Procedure: as §1, §2
Activity data is provided is Table 2.

MM200 = assay: MTT proliferation assay, MM200; assay type: cell-based; conditions: Melanoma, MM200, 120 h of exposure
Procedure: as §1, §2

CALU3 = assay: MTT proliferation assay, CALU3; assay type: cell-based; conditions: Homo sapiens, Calu-3; NSCLC, CALU3, 120 h of exposure
Procedure: as §1, §2

A2780 = assay: MTT proliferation assay, A2780; assay type: cell-based
Procedure: as §1, §2

R-182 = assay: MTT proliferation assay, R-182; assay type: cell-based; conditions: Ovarian, R-182, 120 h of exposure
Description: Tissue culture. The multidrug resistant primary epithelial ovarian cancer cell line R-182 TARA was a gift from Dr. Gil Mor (Yale University, New Haven, CT, USA). This cell line was derived by explant from ovarian tumors and cultured as previously described. All other cell lines were purchased from American Type Culture Collection (ATCC, Manassas, VA, USA) with the exception of MKN1, HuH-7, JHH-1, which were purchased from the Japanese Collection of Research Bioresources (JCRB, Osaka, Japan), and OE19 which was purchased from the European Collection of Cell Cultures (ECACC, Salisbury, UK).
as §1, §2

NCI-H460 = assay: MTT proliferation assay, NCI-H460; assay type: cell-based, human; conditions: Homo sapiens; NSCLC, NCI-H460, 120 h of exposure
Procedure: The human non-small cell lung adenocarcinoma lines NCI-H1299 (CRL-5803), NCI-H460 (HTB-177), NCI-H358 (CRL-5807), NCI-H838 (CRL-5844), the human colorectal adenocarcinoma lines COLO 205 (CCL-222), HCT-15 (CCL-225) and the human gastric cancer cell line NCI-N87 (CRL-5822) were cultured in RPMI 1640 medium containing 2 g/L sodium bicarbonate (Hyclone/Invitrogen) supplemented with 2 mM L-glutamine (Gibco) 1 mM sodium pyruvate (Sigma), 10 mM HEPES (Sigma) and 4500 mg/L glucose (Sigma). The human non-small cell lung adenocarcinoma line NCI-H2126 (CCL-256) was cultured in DMEM:F12(1:1) (Hyclone/Invitrogen) containing 2.5 mM L-glutamine 2.4 g/L sodium bicarbonate supplemented with 5% fetal bovine serum (FBS), an additional 2 mM L-glutamine, 15 mM HEPES, 0.005 mg/ml insulin (Sigma), 0.01 mg/ml transferrin (Sigma), 30 nM sodium selenite (Sigma), 10 nM hydrocortisone (Sigma) and 10 nM beta-estradiol (Sigma). The human colorectal adenocarcinoma line HT-29 (HTB-38) and the human gastric cancer cell lines OE-19 (#96071721) and MKN1 (JCRB0252) were cultured in RPMI 1640 media supplemented with 2 mM L-glutamine.
as §1, §2

Oc1ccc([C@H]2c3ccc(O)cc3OC[C@H]2c2ccc(O)cc2)cc1 [Compound 31, d-cis-3-(4-hydroxyphenyl)-4-(4-hydroxyphenyl)chroman-7-ol]
superior anti-proliferative activity: anti-proliferative activity against various cancer cells compared with racemic (compound 32) and l-form (compound 33) (A2780; 120 hrs of exposure, various cancer cells (Table 2))
150 to 500 nM: IC50 (SK-Hep-1) | IC50 (CALU3) | IC50 (A2780; Homo sapiens, A2780, 120 h, Ovarian, A2780, 120 h of exposure) | IC50 (A2780; Table 2, Ovarian, A2780, 120 hrs of exposure)
≤ 150 nM: IC50 (SKBR-3; Homo sapiens, SK-BR-3, 120 h, Breast, SKBR-3, 120 h of exposure) | IC50 (SKBR-3; Table 2, Breast, SKBR-3, 120 hrs of exposure) | IC50 (R-182)
510 to 1500 nM: IC50 (A549) | IC50 (MM2200) | IC50 (MM200) | IC50 (NCI-H460)
